Assay results taken from patent US20230140798A1, “SYNTHETIC PEPTIDES DIRECTED AGAINST THE METABOTROPIC GLUTAMATE RECEPTOR 5” (Lactocore, Inc., priority 2020, published 2023).
Entries after “also recorded” stand apart in the source; their conditions may differ. Each block holds one compound with its values, some of them ahead of it.

Legend:
Sprague-Dawley rats = assay: Modified Porsolt Forced Swim test (FST), rats; format: in vivo; details: i.p.; group name 5 mg/kg, test substance 20 mg/kg
Protocol: As part of this modification, two tests are carried out within two days. The installation is a transparent cylinder, 30 cm high, 10 cm in diameter and filled with water (water temperature 21° C.-23° C.) to a mark at a height of 25 cm. On the first day, each animal is placed in the apparatus for ten minutes. Behavioral parameters are not recorded. The animals are placed in the cylinder for 10 minutes again on the second day. The duration of active (vigorous movements with all paws) and passive (weak strokes with hind legs) swimming, as well as immobility (immobilization) (Porsolt et al. (1977) Behavioral despair in mice: a primary screening test for antidepressants. Arch Int Pharmacodyn Ther. 229(2):327-36) are recorded. After each test, the rats are placed in a heated cage until dry. The behavioral indicators in this test are processed using the Real Timer Program developed by Open Science. The sequence of events, their duration, as well as conduct basic statistical data processing are recorded.

mGluR5 (GRM5) = assay: HEK 293 cells mGluR5-luciferase reporter assay (β-arrestin2 recruitment); format: cell-based, human; details: for effect on CHPG-induced mGluR5 activity (luciferase signal): + 1 mM CHPG
From the text: The methodology was previously described by Kroeze (Kroeze et al. (2015). PRESTO-Tango as an open-source resource for interrogation of the druggable human GPCRome. Nat. Struct. Mol. Biol. 22(5): 362) and the principle is illustrated in FIG. 19. Briefly, the cells of HEK293 cell line are transfected with 3 types of plasmids:
Plasmid 1: encodes fusion GRMS-tTA protein. The linker between GRMS and tTA is sensitive to TEV-protease (www.addgene.org/66390/).
Plasmid 2: encodes β-arrestin2/TEV-protease fusion protein (www.addgene.org/107245/).
Plasmid 3: luciferase tTA reporter (www.addgene.org/64127/).
Sufficient quantities of fusion proteins were produced during 24 hours after transfection. mGluR5 (GRM5) activation by a selective agonist CHPG (SEQ ID NO: 18) (1) leads to recruiting of β-arrestin2/TEV-protease fusion protein (2), that cleaves the linker between GRM5 and tTA (3). Released tTA transcription factor (4) binds with its consensus sites in tTA luciferase reporter plasmid (5) that results in activation of luciferase expression. The activity of luciferase can be used to estimate the activity of mGluR5, and application of negative allosteric modulators of mGluR5 should lead to a dose-dependent decrease in luciferase activity in this system (FIG. 19).
Sufficient quantities of the plasmids were produced using standard applications before the experiment. HEK293 cells were co-transfected with three plasmids using polyethylenimine (PEI, 408727, Sigma-Aldrich, USA) 24 hours prior to agonists application. Transfected cells were treated with agonists/antagonists and incubated overnight (16 hours). Antagonists were introduced 10 minutes prior to agonists. Luciferase test was performed using Promega™ Luciferase Assay Systems Kit (PR-E1500, Promega, USA) according to the manufacturer's protocol.
CHPG—orthosteric selective mGlu5 receptor agonist (HB0033, HelloBio, USA). […]

human mGluR5 = biological target: T1, human mGluR5 (Homo sapiens, UniProt P41594); assay: Sodium glutamate-evoked [Ca^2+] responses in CHO-mGluR5 cells (calcium-flux imaging); format: cell-based
T1 construct: expressed in transfected cells; host or cells: CHO cells carrying pcDNA6/TR (T-REx system)
From the text: CHO-mGluR5 cells with tetracycline-induced stable expression of human mGluR5.
The CHO cell line stably expressing human mGluR5 was generated using T-Rex System (Thermo Fisher Scientific Inc., Waltham, Mass., USA) according to the manufacturer's' instructions. Briefly, cDNA encoding human mGluR5 was subcloned into inducible expression vector pcDNA4/TO and was transfected into CHO cells carrying regulatory vector pcDNA6/TR that expresses the tetracycline repressor. After 2 weeks of selection using Blasticidin (5 µg/ml) and zeocin (250 µg/ml), pools of cells were screened for the expression of mGluR5 in the agonist-induced [Ca^2+] uptake assay. Positive cells were expanded and used. mGluR5 expression was induced by adding tetracycline (up to 1 µg/ml) 16 h before testing.
Fluorescent assays were performed using NOVOstar (BMG LABTECH, Ortenberg, Germany). CHO-mGluR5 cells were seeded into black-walled clear-bottomed 96-well plates at a density of 75,000 cells per well (complete media without antibiotics and containing 1 µg/ml of tetracycline to induce receptor expression) and were cultured overnight at 37° C. […] After a 3-min incubation at 37° C., changes in cell fluorescence ([…]) were monitored before and after the addition of the mGLuR5 agonist (1 mM sodium glutamate—Glu-Na). […]

Wistar rats [1] = assay: Open Field test in Acute Foot Shock (AFS) stress model; format: in vivo; details: 4.5 mg/kg i.p. daily for ten days after AFS
Protocol: (§1) KEDV (SEQ ID NO: 4) and RAHE (SEQ ID NO: 3) (Lactocore Inc.) were administered intranasally (i.n), daily for 10 days at a dose of 1 mg/kg and 5 mg/kg. Peptides were prepared freshly each day in saline. The solution for i.n. administration of 5 mg/kg in a volume of 15 μl (single administration) contained 1.3 mg KEDV (SEQ ID NO: 4) or RAHE (SEQ ID NO: 3), and a solution for intranasal administration of 1 mg/kg in a volume of 10 μl (single administration) contained 0.26 mg KEDV (SEQ ID NO: 4) or RAHE (SEQ ID NO: 3).
(§2) The tetracyclic antidepressant Maprotiline (MAP, “Lyudiomil”), was used as a drug of comparison. Animals received a daily intraperitoneal injection (i.p) of MAP for ten days (M9651, Merck, in a dose of 4.5 mg/kg, dissolved in saline, 250 μl per administration).
(§3) Stimulation was performed automatically using a software randomizer.
The OF test is a classic method for assessing the level of motor activity and exploratory behavior of rodents in new stressogenic conditions. The test was performed in a cage of 90×90×45 cm without a roof, the floor of which was laid out on squares 15×15 cm and lit from above by a 60 W lamp. On the 5th day after stressing in the LH model, the rat was placed in the center of the OF. The following parameters were measured for 5 minutes: latency to start of moving, the number of crossed squares, the duration of rears and freezing.

Wistar rats [2] = assay: Elevated Plus Maze test in Acute Foot Shock (AFS) stress model; format: in vivo
Protocol: as §1, §2, §3
EPM testing allows characterizing the behavior of rodents under the variable stress conditions, which makes it possible to assess the level of animal anxiety and anxiolytic effects of drugs. On the 6th day after the experimental exposure, the rats were tested one at a time for 5 min in the EPM installation, located at a height of 75 cm above the floor, and consisting of 2 open illuminated and 2 closed arms with exits. The time spent by the animal inside and outside the closed arms (in the open arms and in the center), the number of transitions between the arms, the number of stretch-attended postures were evaluated. Usually, animals tend to stay in the closed arms, anxiolytic treatment results in an increment of the time spent on the open arms of the maze (Pellow et al. (1985). Validation of open: closed arm entries in an elevated plus-maze as a measure of anxiety in the rat. J. Neurosci. Methods, 14(3), 149-167; Walf et al. (2007). The use of the elevated plus maze as an assay of anxiety-related behavior in rodents. Nat. Protoc., 2(2), 322-328).

Wistar rats [3] = assay: Dexamethasone test (DXMT), serum corticosterone, AFS model; format: in vivo; details: 4.5 mg/kg i.p. daily, after AFS; DXM 10 μg/kg
Protocol: as §3
Evaluation of the stress-evoked release of glucocorticoid hormones (corticosterone, an analog of cortisol in humans) and its suppression by the introduction of synthetic glucocorticosteroid was performed on the 9-10th day after the development of LH in a two-day dexamethasone test according to the scheme, taking into account the specificity of the circadian rhythm of HPA axis function in rats (Zhukov (1993). The dexamethasone suppression test in genetically different rats exposed to inescapable and escapable electric shocks. Psychoneuroendocrinology, 18(7), 467-474.].
On the first day of the test (DXMT1) at 10:00 AM, animals were injected (i.p.) with saline, then at 04:00 PM on the same day peripheral blood samples were taken to determine the basal level of the hormone, which caused stress, and 30 minutes after taking the rat from the cage and receiving initial sample, re-taken blood to measure hormone stress level.
To study the sensitivity of the HPA system to feedback signals, rats were injected with dexamethasone (DXM, 10 μg/kg, i.p.) the next day (DXMT2) at 10 AM. The procedure for taking blood from the tail vein was repeated after 6 and 6.5 hours. The corticosterone content was determined by enzyme-linked immunosorbent assay with reagent kits “Corticosterone-ELISA” (“Hema”, RF) in two parallel samples.

[4] = MAP 4.5 mg/kg i.p., AFS, overall median 0.00

T1 sequence (P41594 21-1212): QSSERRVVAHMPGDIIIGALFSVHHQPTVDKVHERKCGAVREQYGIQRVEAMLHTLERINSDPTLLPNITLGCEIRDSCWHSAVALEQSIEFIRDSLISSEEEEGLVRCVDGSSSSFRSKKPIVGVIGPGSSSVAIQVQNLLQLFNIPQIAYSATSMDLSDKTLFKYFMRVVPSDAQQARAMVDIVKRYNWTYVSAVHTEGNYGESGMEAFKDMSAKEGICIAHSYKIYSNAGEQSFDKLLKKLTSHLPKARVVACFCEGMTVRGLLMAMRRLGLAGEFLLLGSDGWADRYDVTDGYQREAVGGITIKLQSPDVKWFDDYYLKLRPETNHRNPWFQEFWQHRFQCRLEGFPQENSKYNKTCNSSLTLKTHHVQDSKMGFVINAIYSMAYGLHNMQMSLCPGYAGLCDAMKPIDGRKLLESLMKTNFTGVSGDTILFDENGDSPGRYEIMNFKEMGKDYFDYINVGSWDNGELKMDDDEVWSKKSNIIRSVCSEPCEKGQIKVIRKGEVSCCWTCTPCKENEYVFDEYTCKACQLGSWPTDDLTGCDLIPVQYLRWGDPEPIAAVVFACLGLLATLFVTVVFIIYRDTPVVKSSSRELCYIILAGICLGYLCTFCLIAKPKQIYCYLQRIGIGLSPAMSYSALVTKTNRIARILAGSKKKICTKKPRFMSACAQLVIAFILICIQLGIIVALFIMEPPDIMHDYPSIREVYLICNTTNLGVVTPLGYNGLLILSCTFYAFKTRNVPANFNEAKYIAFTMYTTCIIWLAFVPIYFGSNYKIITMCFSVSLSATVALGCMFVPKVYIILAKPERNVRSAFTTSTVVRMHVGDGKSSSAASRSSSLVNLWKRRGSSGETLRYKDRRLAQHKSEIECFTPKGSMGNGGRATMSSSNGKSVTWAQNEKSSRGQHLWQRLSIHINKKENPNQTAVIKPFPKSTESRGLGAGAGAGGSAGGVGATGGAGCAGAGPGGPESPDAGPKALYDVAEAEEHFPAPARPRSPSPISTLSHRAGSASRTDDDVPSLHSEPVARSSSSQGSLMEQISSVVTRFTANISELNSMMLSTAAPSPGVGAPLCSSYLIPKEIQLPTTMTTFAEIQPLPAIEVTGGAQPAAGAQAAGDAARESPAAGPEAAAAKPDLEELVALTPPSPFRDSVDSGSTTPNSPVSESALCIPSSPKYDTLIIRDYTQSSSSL

Structure (SMILES): CNCCC(Oc1ccc(C(F)(F)F)cc1)c1ccccc1 (stereo not shown) [Fluoxetine, fluoxetine]
antidepressant-like properties in FST (Sprague-Dawley rats): not observed

Structure (SMILES): Cc1ccc(O)c(N=Nc2ccccc2)n1 [SIB 1757]
effect on CHPG-induced mGluR5 activity (luciferase signal) (mGluR5 (GRM5); 10 μM): inhibition of mGluR5 activity; also recorded: significant decrease of luciferase signal
effect on CHPG-induced mGluR5 activity (luciferase signal) (mGluR5 (GRM5); 100 μM): inhibition of mGluR5 activity

intracellular [Ca^2+] levels vs buffer (human mGluR5; 1 mM, CHO-mGluR5 cells): elevated intracellular [Ca^2+] levels
Structure (SMILES): N[C@@H](CCC(=O)[O-])C(=O)[O-].[Na+].[Na+] [GluNa, sodium glutamate]

Structure (SMILES): CNCCCC12CCC(c3ccccc31)c1ccccc12 [MAP, Maprotiline]
freezing behavior vs stressed saline-treated animals (Wistar rats [1]): significant reduction of freezing behavior
proportion of animals that went to the open arms of the maze (Wistar rats [2]; 4.5 mg/kg i.p. daily, after AFS): 78%
time in open arms <=Median: obs. − exp. (Wistar rats [2]; MAP 4.5 mg/kg i.p., AFS): −2.86
time in open arms >Median: obs. − exp. (Wistar rats [2]; MAP 4.5 mg/kg i.p., AFS): 2.86
time in open arms <=Median: observed (animals) (Wistar rats [2]; [4]): 2.00
time in open arms >Median: observed (animals) (Wistar rats [2]; [4]): 7.00
suppression of stress CS levels in serum by DXM (Wistar rats [3]): more than 50%

effect on GluNa-induced activation (human mGluR5; pre-treatment 0.1, 1, 10, 100 μM, 1 mM GluNa): abolished GluNa-induced activation
Structure (SMILES): Cc1cccc(C#Cc2ccccc2)n1 [MPEP, 2-methyl-6-(phenylethynyl)-pyridine]

Structure (SMILES): NC(C(=O)O)c1cc(O)ccc1Cl (stereo not shown) [CHPG]
luciferase signal (mGluR5 activation) (mGluR5 (GRM5); 1 mM, 16-hours incubation): significant induction of luciferase signal
